Experimental data as given in ChEMBL document CHEMBL3588822, “Synthetic 1,2,3-triazole-linked glycoconjugates bind with high affinity to human galectin-3” (Bioorg Med Chem, 2015).

What was measured:
[1] = target: T1, Galectin-3 (Homo sapiens, UniProt P17931); assay: Inhibition of human recombinant wild type galectin 3 after 60 mins by surface plasmon resonance immunosensor assay
[2] = target: T1, Galectin-3; assay: Inhibition of human recombinant wild type galectin 3 first carbohydrate recognition domain after 60 mins by surface plasmon resonance immunosensor assay
[3] = target: T1, Galectin-3; assay: Inhibition of human recombinant wild type galectin 3 second carbohydrate recognition domain after 60 mins by surface plasmon resonance immunosensor assay

T1 sequence (P17931 whole entry, the tested form may be a part): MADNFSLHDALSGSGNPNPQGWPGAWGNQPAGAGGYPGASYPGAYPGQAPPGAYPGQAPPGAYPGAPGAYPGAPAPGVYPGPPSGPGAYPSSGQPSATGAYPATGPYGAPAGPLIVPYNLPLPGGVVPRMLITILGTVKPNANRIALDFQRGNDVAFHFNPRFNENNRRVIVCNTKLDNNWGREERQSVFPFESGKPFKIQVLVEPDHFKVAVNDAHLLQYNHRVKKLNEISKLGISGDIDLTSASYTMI

Row | SMILES | Kd [1] | Kd [2] | Kd [3]
1 | CO[C@H]1O[C@H](CO)[C@H](O)[C@H](OCc2cn([C@@H](Cc3ccccc3)C(=O)O)nn2)[C@H]1O | 7.96 µM |  | 
2 | CO[C@H]1O[C@H](CO)[C@H](O)[C@H](OCc2cn([C@@H](Cc3cc4ccccc4[nH]3)C(=O)O)nn2)[C@H]1O | 28.1 µM |  | 
3 | CO[C@H]1O[C@H](CO)[C@H](O)[C@H](OCc2cn([C@@H](CCCCN)C(=O)O)nn2)[C@H]1O | 4.56 µM |  | 
4 | CO[C@H]1O[C@H](CO)[C@H](O)[C@H](OCc2cn([C@@H](Cc3ccc(O)cc3)C(=O)O)nn2)[C@H]1O | 19.9 µM |  | 
5 | OC[C@H]1O[C@@H](O[C@H]2[C@H](O)[C@@H](O)[C@H](OCCOCCOCCn3cc(CO[C@@H]4O[C@H](CO)[C@@H](O[C@@H]5O[C@H](CO)[C@H](O)[C@H](O)[C@H]5O)[C@H](O)[C@H]4O)nn3)O[C@@H]2CO)[C@H](O)[C@@H](O)[C@H]1O |  | 0.5 µM | 19 µM

Results, then the compound that gave them:

Row | Kd [1] | Kd [2] | Kd [3] | SMILES
6 | 88.2 µM |  |  | CO[C@H]1O[C@H](CO)[C@H](O)[C@H](OCc2cn([C@H](C(=O)O)[C@@H](C)O)nn2)[C@H]1O
7 | 11.1 µM |  |  | CO[C@H]1O[C@H](CO)[C@H](O)[C@H](OCc2cn([C@@H](CC(=O)O)C(=O)O)nn2)[C@H]1O
